Laboratory results from patent publication US4908452A, “Process for preparing nitriles” (Merck & Co., Inc., priority 1987, dated 1990).

Test system: Factor XIIIa
Assay: Factor XIIIa inhibitor assay (14C-putrescine incorporation into N,N-dimethyl-casein)
Type: biochemical, human
Procedure: The Factor XIIIa inhibitor activity may be determined by an assay described in Methods in Enzymology, Vol. 45, Ch 15, pages 177-191 (1976) and using Factor XIII isolated from human plasma. Briefly, the assay is carried out by adding a substrate mixture of ^14 C-putrescine and N,N-dimethyl-casein to an Factor XIII assay mixture previously prepared by adding thrombin and dithiothreitol to Factor XIII in glycerol/water and tris(hydroxymethyl)aminomethane hydrochloride and then adding calcium ions, thereafter, incubating at 37° for 20 minutes, withdrawing samples to a filter disk, precipitating the casein with trichloracetic acid and then counting to determine the extent of incorporation of inhibitor of ^14 C-putrescine in casein. The result for 3-(1-oxo-4,7-nonadienyl)-oxiranecarbonitrile was 60 percent inhibition at 3 mM.

C/C=C/C/C=C/CCC(=O)[C@H]1O[C@H]1C#N [3-(1-oxo-4,7-nonadienyl)oxirane-carbonitrile]
percent inhibition of Factor XIIIa (at 3 mM, Factor XIII isolated from human plasma, 37° for 20 minutes): 60%
inhibitory activity against Factor XIIIa (statement in words) (plasma transglutaminase enzyme): inhibitory activity against Factor XIIIa
